Assay type in all cases: cell-based
One experiment addresses T1, human TLR7 (Homo sapiens, UniProt Q9NYK1).
T1 construct: host or cells: HEK-Blue cells
T1 sequence (Q9NYK1 27-1049): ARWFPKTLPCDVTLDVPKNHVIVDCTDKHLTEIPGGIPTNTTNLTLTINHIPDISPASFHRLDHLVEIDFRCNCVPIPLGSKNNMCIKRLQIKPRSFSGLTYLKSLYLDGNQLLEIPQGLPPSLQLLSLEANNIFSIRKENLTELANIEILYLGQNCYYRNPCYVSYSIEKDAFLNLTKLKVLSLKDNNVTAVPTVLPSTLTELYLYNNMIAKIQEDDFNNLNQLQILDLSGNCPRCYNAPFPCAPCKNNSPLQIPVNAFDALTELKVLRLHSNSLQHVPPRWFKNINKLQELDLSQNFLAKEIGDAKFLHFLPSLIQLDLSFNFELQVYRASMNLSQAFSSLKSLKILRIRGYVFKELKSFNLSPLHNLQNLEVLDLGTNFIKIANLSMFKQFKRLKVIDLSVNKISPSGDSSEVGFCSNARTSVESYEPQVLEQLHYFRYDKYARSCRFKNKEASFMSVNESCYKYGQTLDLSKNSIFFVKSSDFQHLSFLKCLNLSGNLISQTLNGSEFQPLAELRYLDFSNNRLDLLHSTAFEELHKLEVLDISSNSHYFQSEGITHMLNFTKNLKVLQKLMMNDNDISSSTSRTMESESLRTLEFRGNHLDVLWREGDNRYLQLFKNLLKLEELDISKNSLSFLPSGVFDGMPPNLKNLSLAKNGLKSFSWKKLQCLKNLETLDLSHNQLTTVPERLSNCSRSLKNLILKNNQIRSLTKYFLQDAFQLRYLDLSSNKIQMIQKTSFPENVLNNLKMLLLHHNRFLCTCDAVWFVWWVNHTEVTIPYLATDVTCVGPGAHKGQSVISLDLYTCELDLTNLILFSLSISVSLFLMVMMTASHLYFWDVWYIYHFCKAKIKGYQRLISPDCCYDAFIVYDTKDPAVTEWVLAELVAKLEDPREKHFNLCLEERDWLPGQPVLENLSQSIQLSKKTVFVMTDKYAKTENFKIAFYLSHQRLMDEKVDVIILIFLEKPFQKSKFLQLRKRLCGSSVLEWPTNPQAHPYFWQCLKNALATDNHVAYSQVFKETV
As to the kind of experiment: TLR7 inhibition reporter assay (HEK-Blue, SEAP). The following applies: HEK-Blue cells overexpressing human TLR7, gardiquimod 7.5 μM, 22 hour incubation. The method, then: (§1) TLR7/8/9 Inhibition Reporter Assays
(§2) HEK-Blue™-cells (Invivogen) overexpressing human TLR7, TLR8 or TLR9 receptors were used for screening inhibitors of these receptors using an inducible SEAP (secreted embryonic alkaline phosphatase) reporter gene under the control of the IFN-β minimal promoter fused to five NF-κB and AP-1-binding sites. Briefly, cells are seeded into Greiner 384 well plates (15000 cells per well for TLR7, 20,000 for TLR8 and 25,000 for TLR9) and then treated with test compounds in DMSO to yield a final dose response concentration range of 0.05 nM-50 μM. After a 30 minute compound pre-treatment at room temperature, the cells are then stimulated with a TLR7 ligand (gardiquimod at a final concentration of 7.5 μM), TLR8 ligand (R848 at a final concentration of 15.9 μM) or TLR9 ligand (ODN2006 at a final concentration of 5 nM) to activate NF-κB and AP-1 which induce the production of SEAP. After a 22 hour incubation at 37° C., 5% CO2, SEAP levels are determined with the addition of HEK-Blue™ Detection reagent (Invivogen), a cell culture medium that allows for detection of SEAP, according to manufacturer's specifications. The percent inhibition is determined as the % reduction in the HEK-Blue signal present in wells treated with agonist plus DMSO alone compared to wells treated with a known inhibitor.
A general note: In a reporter assay the amount or activity of a reporter protein is the signal.

The target of the next experiment is T2, human TLR8 (Homo sapiens, UniProt Q9NR97).
T2 construct: host or cells: HEK-Blue cells
T2 sequence (Q9NR97 27-1041): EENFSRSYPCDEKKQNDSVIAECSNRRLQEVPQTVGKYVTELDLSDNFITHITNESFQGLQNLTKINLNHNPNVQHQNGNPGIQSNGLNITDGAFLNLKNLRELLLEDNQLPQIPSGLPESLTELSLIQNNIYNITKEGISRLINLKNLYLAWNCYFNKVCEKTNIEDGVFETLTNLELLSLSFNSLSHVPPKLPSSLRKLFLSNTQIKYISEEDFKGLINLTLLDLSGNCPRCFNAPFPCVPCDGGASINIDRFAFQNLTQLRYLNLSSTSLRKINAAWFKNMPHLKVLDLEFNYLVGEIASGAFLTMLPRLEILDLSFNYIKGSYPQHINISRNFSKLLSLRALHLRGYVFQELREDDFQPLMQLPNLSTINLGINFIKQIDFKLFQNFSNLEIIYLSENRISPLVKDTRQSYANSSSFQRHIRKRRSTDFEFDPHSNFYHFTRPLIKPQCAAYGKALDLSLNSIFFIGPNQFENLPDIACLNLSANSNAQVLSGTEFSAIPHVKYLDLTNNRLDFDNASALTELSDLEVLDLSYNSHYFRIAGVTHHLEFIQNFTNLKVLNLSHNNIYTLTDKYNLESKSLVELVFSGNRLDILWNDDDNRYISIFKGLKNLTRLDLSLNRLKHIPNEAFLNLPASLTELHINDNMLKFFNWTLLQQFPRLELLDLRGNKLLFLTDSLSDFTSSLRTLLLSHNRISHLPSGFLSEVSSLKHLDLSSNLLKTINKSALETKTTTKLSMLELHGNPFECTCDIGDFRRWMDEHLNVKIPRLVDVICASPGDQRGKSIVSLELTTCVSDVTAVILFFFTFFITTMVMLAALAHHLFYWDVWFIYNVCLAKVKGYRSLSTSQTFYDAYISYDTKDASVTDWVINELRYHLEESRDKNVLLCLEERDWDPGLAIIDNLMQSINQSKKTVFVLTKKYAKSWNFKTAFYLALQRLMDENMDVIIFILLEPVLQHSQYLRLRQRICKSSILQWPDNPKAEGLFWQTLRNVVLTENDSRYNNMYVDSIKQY
The experiment can be described thus: TLR8 inhibition reporter assay (HEK-Blue, SEAP). The following applies: HEK-Blue cells overexpressing human TLR8, R848 15.9 μM, 22 hour incubation. As to the method:
as §1, §2

For the next experiment, the target named is T3, human TLR9 (Homo sapiens, UniProt Q9NR96).
T3 construct: host or cells: HEK-Blue cells
T3 sequence (Q9NR96 26-1032): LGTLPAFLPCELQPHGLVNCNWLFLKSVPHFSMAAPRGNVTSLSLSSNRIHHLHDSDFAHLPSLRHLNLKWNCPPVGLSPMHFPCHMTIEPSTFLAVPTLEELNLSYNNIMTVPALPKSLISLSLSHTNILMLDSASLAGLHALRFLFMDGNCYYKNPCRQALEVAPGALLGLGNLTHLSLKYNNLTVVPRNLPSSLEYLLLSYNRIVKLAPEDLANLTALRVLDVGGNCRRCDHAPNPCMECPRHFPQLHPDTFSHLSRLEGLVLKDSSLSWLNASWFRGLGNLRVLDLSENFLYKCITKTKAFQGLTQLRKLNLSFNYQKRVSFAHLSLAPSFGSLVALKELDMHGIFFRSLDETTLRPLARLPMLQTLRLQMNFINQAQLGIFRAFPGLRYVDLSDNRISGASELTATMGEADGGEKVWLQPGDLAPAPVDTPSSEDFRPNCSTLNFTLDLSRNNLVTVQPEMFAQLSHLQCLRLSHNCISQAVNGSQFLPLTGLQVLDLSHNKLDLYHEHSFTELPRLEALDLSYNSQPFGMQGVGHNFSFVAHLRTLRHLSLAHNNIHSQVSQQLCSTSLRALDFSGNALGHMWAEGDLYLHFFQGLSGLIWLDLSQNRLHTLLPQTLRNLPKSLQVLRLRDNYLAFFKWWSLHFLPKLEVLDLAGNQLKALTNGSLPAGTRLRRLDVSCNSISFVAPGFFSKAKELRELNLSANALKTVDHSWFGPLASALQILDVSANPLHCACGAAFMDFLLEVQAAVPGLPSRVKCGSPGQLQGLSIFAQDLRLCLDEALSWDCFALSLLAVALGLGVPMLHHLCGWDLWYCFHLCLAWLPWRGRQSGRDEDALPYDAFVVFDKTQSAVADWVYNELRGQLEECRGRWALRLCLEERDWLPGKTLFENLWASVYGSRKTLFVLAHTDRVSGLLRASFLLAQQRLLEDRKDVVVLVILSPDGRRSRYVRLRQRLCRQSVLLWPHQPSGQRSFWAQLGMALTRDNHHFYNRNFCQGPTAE
The experiment can be described thus: TLR9 inhibition reporter assay (HEK-Blue, SEAP). The following applies: HEK-Blue cells overexpressing human TLR9, ODN2006 5 nM, 22 hour incubation. As to the method: as §1, §2

For the compound “1-(4-(3-isopropyl-2-(8-methoxy-5-methyl-[1,2,4]triazolo[4,3-a)pyridin-6-yl)-1H-indol-5-yl)piperidin-1-yl)-2-methylpropan-2-ol [Example 62]”, the IC50 is 1.2 nM against human TLR7, 6.4 nM on human TLR8 and 381 nM against human TLR9.
The matching figures for `Cc1c(-c2[nH]c3ccc(C4CCN(C5CCOC5)CC4)cc3c2C(C)C)cn2cnnc2c1C` (single isomer, unassigned) [Example 102, 6-(3-isopropyl-5-(1-(tetrahydrofuran-3-yl)piperidin-4-yl)-1H-indol-2-yl)-7,8-dimethyl-[1,2,4]triazolo[4,3-a]pyridine]: 3.9 nM, 8.2 nM and 5460 nM.
Turning to `Cc1c(-c2[nH]c3ccc(C4CCN(C5CCOC5)CC4)cc3c2C(C)C)cn2cnnc2c1C` (single isomer, unassigned) [Example 103, 6-(3-isopropyl-5-(1-(tetrahydrofuran-3-yl)piperidin-4-yl)-1H-indol-2-yl)-7,8-dimethyl-[1,2,4]triazolo[4,3-a]pyridine], the values for the IC50 on human TLR7, at human TLR8 and against human TLR9 were 5.1 nM, 11.7 nM and 10200 nM, respectively.
As for `Cc1c(-c2[nH]c3ccc(C4CC(C)N(CCS(C)(=O)=O)C(C)C4)cc3c2C(C)C)cn2cnnc2c1C` (single isomer, unassigned) [Example 110, 6-(5-(2,6-dimethyl-1-(2-(methylsulfonyl)ethyl)piperidin-4-yl)-3-isopropyl-1H-indol-2-yl)-7,8-dimethyl-[1,2,4]triazolo[4,3-a]pyridine], the values for the IC50 against human TLR7, on human TLR8 and on human TLR9 were 6.3 nM, 19.4 nM and 6630 nM, respectively.
On to `Cc1c(-c2[nH]c3ccc(C4CC(C)N(CCS(C)(=O)=O)C(C)C4)cc3c2C(C)C)cn2cnnc2c1C` (single isomer, unassigned) [Example 111, 6-(5-(2,6-dimethyl-1-(2-(methylsulfonyl)ethyl)piperidin-4-yl)-3-isopropyl-1H-indol-2-yl)-7,8-dimethyl-[1,2,4]triazolo[4,3-a]pyridine], for which the IC50 on human TLR7 worked out at 23.9 nM; against human TLR8 it was 113 nM; against human TLR9, 19200 nM.
Taken in the same sequence, the figures for `Cc1c(-c2[nH]c3ccc(C4CC(C)N(CC5(C)COC5)C(C)C4)cc3c2C(C)C)cn2cnnc2c1C` (single isomer, unassigned) [Example 113, 6-(5-(2,6-dimethyl-1-((3-methyloxetan-3-yl)methyl)piperidin-4-yl)-3-isopropyl-1H-indol-2-yl)-7,8-dimethyl-[1,2,4]triazolo[4,3-a]pyridine] were 2.4 nM, 59.6 nM and 4830 nM.
With `Cc1c(-c2[nH]c3ccc(C4CC(C)N(CC5(C)COC5)C(C)C4)cc3c2C(C)C)cn2cnnc2c1C` (single isomer, unassigned) [Example 114, 6-(5-(2,6-dimethyl-1-((3-methyloxetan-3-yl)methyl)piperidin-4-yl)-3-isopropyl-1H-indol-2-yl)-7,8-dimethyl-[1,2,4]triazolo[4,3-a]pyridine], the IC50 turned out to be 13.7 nM at human TLR7, 226 nM on human TLR8 and 7320 nM against human TLR9.
With `Cc1c(-c2[nH]c3ccc(C4C[C@H]5CC[C@@H](C4)N5)cc3c2C(C)C)cn2cnnc2c1C` (single isomer, unassigned) [Example 116, 6-(5-(8-azabicyclo[3.2.1]octan-3-yl)-3-isopropyl-1H-indol-2-yl)-7,8-dimethyl-[1,2,4]triazolo[4,3-a]pyridine], the IC50 is 9.9 nM at human TLR7, 102 nM at human TLR8 and 1110 nM at human TLR9.
Taken in the same sequence, the figures for `Cc1c(-c2[nH]c3ccc(C4C[C@H]5CC[C@@H](C4)N5)cc3c2C(C)C)cn2cnnc2c1C` (single isomer, unassigned) [Example 117, 6-(5-(8-azabicyclo[3.2.1]octan-3-yl)-3-isopropyl-1H-indol-2-yl)-7,8-dimethyl-[1,2,4]triazolo[4,3-a]pyridine] were 31.6 nM, 494 nM and 6090 nM.
For the compound `Cc1c(-c2[nH]c3ccc(C4C[C@H]5CC[C@@H](C4)N5CC(=O)N(C)C)cc3c2C(C)C)cn2cnnc2c1C` (single isomer, unassigned) [Example 118], the values for the IC50 against human TLR7, against human TLR8 and at human TLR9 were 8.7 nM, 159 nM and 5460 nM, respectively.

For orientation: IC50 means the point on the concentration scale where inhibition reaches its midpoint. Low values mean higher potency, high ones lower potency.

These data come from patent US11130756B2, “[1,2,4]Triazolo[4,3-A]pyridinyl substituted indole compounds” (BRISTOL-MYERS SQUIBB COMPANY, priority 2017, dated 2021).
